Experimental data taken from US20180344671A1, “Cysteamine as Neutrophil Elastase Inhibitor” (Novabiotics Limited, priority 2017, published 2018).

Legend:
[1] = molecular target: T1, human neutrophil elastase (Homo sapiens, UniProt P08246); test: SDS PAGE of recombinant human neutrophil elastase treated with cysteamine and derivatives; conditions: FIG. 3; 2.5 μg NE with 2.5 or 5 μg compound, 1 h at 37° C., 8-16% Tris-Glycine SDS gel
T1 sequence (P08246 30-267): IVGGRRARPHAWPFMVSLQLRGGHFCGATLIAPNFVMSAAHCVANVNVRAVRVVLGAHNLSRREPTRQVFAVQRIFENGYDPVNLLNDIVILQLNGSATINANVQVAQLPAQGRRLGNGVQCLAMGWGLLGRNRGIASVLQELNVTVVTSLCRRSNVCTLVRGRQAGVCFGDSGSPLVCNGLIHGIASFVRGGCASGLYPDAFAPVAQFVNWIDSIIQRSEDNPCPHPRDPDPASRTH
Description: FIG. 3: The banding pattern and relative staining intensity of recombinant human neutrophil elastase is altered by the addition of cysteamine bitartrate and cysteamine free base. […] This 8-16% gradient Tri-Glycine SDS gel is loaded with a molecular weight marker and: 1. Recombinant human neutrophil elastase [2.5 μg total]; 2. Recombinant human neutrophil elastase [2.5 μg total] and cysteamine bitartrate [2.5 μg total]; 3. Recombinant human neutrophil elastase [2.5 μg total] and cysteamine bitartrate [5 μg total]; 4. Recombinant human neutrophil elastase [2.5 μg total] and cysteamine free base [2.5 μg total]; 5. Recombinant human neutrophil elastase [2.5 μg total] and cysteamine free base [5 μg total]; 6. Recombinant human neutrophil elastase [2.5 μg total] and cystamine dihydrochloride [2.5 μg total]; 7. Recombinant human neutrophil elastase [2.5 μg total] and cystamine dihydrochloride [5 μg total].
Recombinant proteins were treated with or without cysteamine and its derivatives at the concentrations stated in the figures below for 1 h at 37° C. prior to addition of 2× sample buffer and electrophoretic separation on pre-cast 8-16% tris-glycine SDS polyacrylamide gradient gel (Life Technologies) under a constant voltage of 120V in tris-glycine running buffer until the dye front reached the end of the gel. Samples were not heated prior to loading to minimize denaturation of disulphide bonds on the denaturing gel. Precision Plus (Bio-Rad) prestained protein standards were used alongside samples. After electrophoresis gels were carefully removed from the plastic cassettes and washed in sterile distilled water to remove SDS 3× for 5 min. Protein bands were visualized using coomassie-based Simply Blue™ Safe Stain (Life Technologies) staining for 1 h at room temperature. The gel was washed overnight in sterile distilled water, and for a further hour in fresh water prior to photographing.

[2] = molecular target: T1, human neutrophil elastase; test: Neutrophil Elastase Inhibitor Screening Kit (Sigma MAK213), fluorometric; assay type: biochemical; parameters: purchased Sigma-Aldrich MAK213; conditions: for effect on human neutrophil elastase activity measured fluorometrically: FIG. 2, result in words; for Relative inhibition of NE activity (%): 30 min, 37° C.
Description: Neutrophil Elastase Inhibitor Screening Kit is available from Sigma-Aldrich, catalogue number MAK213. This kit measures neutrophil elastase activity by detecting the hydrolysis and release of a fluorescent product. It allows for the screening of unknown substances for inhibitory activity and compares with a positive inhibitor control. Cysteamine free base, cysteamine bitartrate, and cystamine dihydrochloride were prepared in the assay buffer provided at four times the final testing concentration and combined with enzyme and substrate as appropriate and as defined in the full protocol. Samples were prepared in 96 well microtiter plates with black well walls. Background fluorescence can be determined by omitting the neutrophil elastase from a sample blank control. Fluorescence was measured at 400ex/505em nm on a Biotek Synergy plate reader over 30 min at an incubation temperature of 37° C. Relative inhibition is determined by the following equations: Slope=(Fluorescence 2−Fluorescence 1)/(Time 2−Time 1)=delta fluorescence/minute % Relative Inhibition=((SlopeEC−SlopeSM)/SlopeEC))×100 Where: SlopeSM=the slope of the sample inhibitor (cysteamine and derivatives) & SlopeEC=the slope of the Enzyme control.

banding pattern and relative staining intensity of recombinant human neutrophil elastase [1] | Compound | effect on human neutrophil elastase activity measured fluorometrically [2] | Relative inhibition of NE activity (%) ([2]; Cysteamine bitartrate concentration 20 μg/ml) | Relative inhibition of NE activity (%) ([2]; Cysteamine bitartrate concentration 200 μg/ml) | Relative inhibition of NE activity (%) ([2]; Cysteamine bitartrate concentration 2000 μg/ml)
less of an effect | Cl.Cl.NCCSSCCN [Cystamine dihydrochloride, cystamine dihydrochloride] | minimal effect | – | – | –
altered | NCCS [cysteamine free base, NH2—CH2—CH2—SH] | effected human neutrophil elastase activity | – | – | –

Compound | banding pattern and relative staining intensity of recombinant human neutrophil elastase [1] | effect on human neutrophil elastase activity measured fluorometrically [2] | Relative inhibition of NE activity (%) ([2]; Cysteamine bitartrate concentration 20 μg/ml) | Relative inhibition of NE activity (%) ([2]; Cysteamine bitartrate concentration 200 μg/ml) | Relative inhibition of NE activity (%) ([2]; Cysteamine bitartrate concentration 2000 μg/ml)
NCCS.O=C(O)C(O)C(O)C(=O)O (stereo not drawn) [Cysteamine bitartrate, cysteamine bitartrate] | altered | effected human neutrophil elastase activity | 12.526% | 30.689% | 86.639%
